Literature values in patent US11446277B2, “Penetrating pain relief cream” (priority 2019, dated 2022).

Tests used:
[1] = system: aggressive human breast cancer cells; conditions: in vitro

Q: For C=C(C)[C@@H]1CCC(C)=C[C@H]1c1c(O)cc(CCCCC)cc1O [CBD, Cannabidiol], which “growth of aggressive human breast cancer cells” value [1] is on record?
A: reduce growth

Q: What about the “invasiveness of aggressive human breast cancer cells” value [1] of the same molecule?
A: reduce their invasiveness

Q: And the analgesic properties (animal studies)?
A: analgesic properties

Q: And the anti-inflammatory activity (animal studies)?
A: anti-inflammatory activity

Q: And the sedation (animal tests)?
A: sedative effects

Q: What about the growth of bacteria (bacteria) of the same molecule?
A: inhibit the growth of bacteria
